Active and inactive are the calls of the source. The calls are words filed in the database; no cut-off is given here.
Assays:
MOLT-4 = assay: CellTiter-Glo Luminescent Cell Viability Assay (BCL-XL dependent cell line MOLT-4); format: functional, cell-based; conditions: Homo sapiens
[1] = target: Sodium- and chloride-dependent GABA transporter 1 (Rattus norvegicus) (UniProt P23978); assay: GABA transporter Eurofins-Cerep binding assay; parameters: ligand concentration 10 nM; conditions: filed as antagonist, Compound concentration 10.0 uM
[2] = target: Delta-type opioid receptor (Homo sapiens, UniProt P41143); assay: delta (DOP) (h) Eurofins-Cerep binding assay; parameters: ligand concentration 0.5 nM; conditions: filed as agonist, Compound concentration 10.0 uM
[3] = target: T1, Alpha-2B adrenergic receptor (Homo sapiens) (UniProt P18089); assay: Alpha2B (h) Eurofins-Cerep binding assay; parameters: ligand concentration 2.5 nM; conditions: filed as antagonist, Compound concentration 10.0 uM
T1 sequence (whole entry): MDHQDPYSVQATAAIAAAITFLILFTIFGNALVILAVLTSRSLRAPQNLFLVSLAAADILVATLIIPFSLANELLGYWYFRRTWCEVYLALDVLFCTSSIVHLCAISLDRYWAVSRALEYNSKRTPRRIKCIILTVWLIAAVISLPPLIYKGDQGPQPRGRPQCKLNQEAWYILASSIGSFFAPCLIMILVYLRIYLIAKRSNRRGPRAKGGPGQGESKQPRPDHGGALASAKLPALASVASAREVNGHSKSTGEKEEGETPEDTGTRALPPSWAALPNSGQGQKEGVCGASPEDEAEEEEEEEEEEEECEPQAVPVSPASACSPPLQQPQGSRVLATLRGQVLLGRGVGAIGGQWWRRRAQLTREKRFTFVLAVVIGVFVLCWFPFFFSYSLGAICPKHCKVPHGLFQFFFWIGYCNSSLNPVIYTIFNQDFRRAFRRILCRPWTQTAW

[4] = target: 5-hydroxytryptamine receptor 4 (Homo sapiens) (UniProt Q13639); assay: 5-HT4 e (h) Eurofins-Cerep binding assay; parameters: ligand concentration 0.3 nM; conditions: filed as antagonist, Compound concentration 10.0 uM
[5] = target: Prostaglandin G/H synthase 2 (Homo sapiens) (UniProt P35354); assay: COX2(h) Eurofins-Cerep enzyme and uptake assay; conditions: Compound concentration 10.0 uM
[6] = target: T2, Alpha-1B adrenergic receptor (Homo sapiens) (UniProt P35368); assay: Alpha1B (h) Eurofins-Cerep binding assay; parameters: ligand concentration 0.15 nM; conditions: filed as antagonist, Compound concentration 10.0 uM
T2 sequence (whole entry): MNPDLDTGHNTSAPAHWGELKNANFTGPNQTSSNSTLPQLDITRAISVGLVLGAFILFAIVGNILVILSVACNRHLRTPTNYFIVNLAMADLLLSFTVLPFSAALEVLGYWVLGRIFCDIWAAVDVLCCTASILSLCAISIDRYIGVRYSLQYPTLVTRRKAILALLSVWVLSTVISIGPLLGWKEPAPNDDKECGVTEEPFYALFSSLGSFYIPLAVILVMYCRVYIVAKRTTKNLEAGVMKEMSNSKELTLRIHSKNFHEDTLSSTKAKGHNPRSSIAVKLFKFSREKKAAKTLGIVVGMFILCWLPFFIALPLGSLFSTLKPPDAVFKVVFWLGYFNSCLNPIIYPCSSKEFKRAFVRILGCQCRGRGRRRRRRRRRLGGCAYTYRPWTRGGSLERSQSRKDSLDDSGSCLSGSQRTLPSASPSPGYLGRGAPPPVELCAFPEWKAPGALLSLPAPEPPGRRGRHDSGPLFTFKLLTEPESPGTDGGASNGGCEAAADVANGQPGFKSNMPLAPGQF

[7] = target: 5-hydroxytryptamine receptor 2A (Homo sapiens) (UniProt P28223); assay: 5-HT2A (h) Eurofins-Cerep binding assay; parameters: ligand concentration 0.5 nM; conditions: filed as antagonist, Compound concentration 10.0 uM
[8] = target: T3, 5-hydroxytryptamine receptor 1A (Homo sapiens) (UniProt P08908); assay: 5-HT1A (h) Eurofins-Cerep binding assay; parameters: ligand concentration 0.5 nM; conditions: filed as agonist, Compound concentration 10.0 uM
T3 sequence (whole entry): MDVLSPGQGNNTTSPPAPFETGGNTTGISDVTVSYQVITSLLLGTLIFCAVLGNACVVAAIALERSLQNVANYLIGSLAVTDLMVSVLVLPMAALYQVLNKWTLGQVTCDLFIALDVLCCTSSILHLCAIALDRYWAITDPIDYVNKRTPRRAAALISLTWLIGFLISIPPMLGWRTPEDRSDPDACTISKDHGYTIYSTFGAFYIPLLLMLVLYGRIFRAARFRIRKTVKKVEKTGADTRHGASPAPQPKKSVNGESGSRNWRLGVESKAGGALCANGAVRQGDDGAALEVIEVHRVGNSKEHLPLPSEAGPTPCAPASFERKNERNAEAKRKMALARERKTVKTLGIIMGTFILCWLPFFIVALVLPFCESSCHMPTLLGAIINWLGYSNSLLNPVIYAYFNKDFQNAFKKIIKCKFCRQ

[9] = target: Sulfonylurea receptors; K-ATP channels (Rattus norvegicus) (UniProt Q63563+P70673+Q63664+Q09429); assay: KATP channel Eurofins-Cerep binding assay; format: protein-complex assay; parameters: ligand concentration 0.1 nM; conditions: filed as antagonist, Compound concentration 10.0 uM
[10] = target: Substance-K receptor (Homo sapiens) (UniProt P21452); assay: NK2 (h) Eurofins-Cerep binding assay; parameters: ligand concentration 0.1 nM; conditions: filed as agonist, Compound concentration 10.0 uM
[11] = target: Angiotensin-converting enzyme (Homo sapiens) (UniProt P12821); assay: ACE (h) Eurofins-Cerep enzyme and uptake assay; conditions: Compound concentration 10.0 uM
[12] = target: cGMP-inhibited 3',5'-cyclic phosphodiesterase 3A (Homo sapiens) (UniProt Q14432); assay: PDE3A (h) Eurofins-Cerep enzyme and uptake assay; conditions: Compound concentration 10.0 uM
[13] = target: Sodium-dependent noradrenaline transporter (Homo sapiens) (UniProt P23975); assay: norepinephrine transporter (h) Eurofins-Cerep binding assay; parameters: ligand concentration 1 nM; conditions: filed as antagonist, Compound concentration 10.0 uM
[14] = target: Muscarinic acetylcholine receptor M3 (Homo sapiens) (UniProt P20309); assay: M3 (h) Eurofins-Cerep binding assay; parameters: ligand concentration 0.2 nM; conditions: filed as antagonist, Compound concentration 10.0 uM
[15] = target: GABA-A receptor; alpha-1/beta-2/gamma-2 (Homo sapiens) (UniProt P14867+P47870+P18507); assay: GABAA1 (h) (alpha1,beta2,gamma2) Eurofins-Cerep binding assay; format: protein-complex assay; parameters: ligand concentration 15 nM; conditions: filed as agonist, Compound concentration 10.0 uM
[16] = target: T4, 5-hydroxytryptamine receptor 2C (Homo sapiens) (UniProt P28335); assay: 5-HT2C (h) Eurofins-Cerep binding assay; parameters: ligand concentration 1 nM; conditions: filed as antagonist, Compound concentration 10.0 uM
T4 sequence (whole entry): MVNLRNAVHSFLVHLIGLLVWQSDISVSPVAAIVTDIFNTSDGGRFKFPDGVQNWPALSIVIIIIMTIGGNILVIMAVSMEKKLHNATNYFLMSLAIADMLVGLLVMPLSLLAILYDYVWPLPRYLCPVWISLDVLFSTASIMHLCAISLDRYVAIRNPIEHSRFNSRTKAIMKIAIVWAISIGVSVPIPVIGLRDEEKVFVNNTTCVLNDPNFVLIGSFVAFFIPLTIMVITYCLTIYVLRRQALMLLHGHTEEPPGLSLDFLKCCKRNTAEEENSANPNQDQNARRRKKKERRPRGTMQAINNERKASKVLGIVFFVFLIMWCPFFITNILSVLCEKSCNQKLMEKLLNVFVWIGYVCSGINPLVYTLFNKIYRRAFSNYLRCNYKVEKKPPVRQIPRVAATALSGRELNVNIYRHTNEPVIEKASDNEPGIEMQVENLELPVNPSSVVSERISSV

[17] = target: Prostaglandin G/H synthase 1 (Homo sapiens) (UniProt P23219); assay: COX1(h) Eurofins-Cerep enzyme and uptake assay; conditions: Compound concentration 10.0 uM
[18] = target: D(2) dopamine receptor (Homo sapiens) (UniProt P14416); assay: D2S (h) Eurofins-Cerep binding assay; parameters: ligand concentration 0.3 nM; conditions: filed as antagonist, Compound concentration 10.0 uM
[19] = target: Adenosine receptor A1 (Homo sapiens) (UniProt P30542); assay: A1 (h) Eurofins-Cerep binding assay; parameters: ligand concentration 1 nM; conditions: filed as antagonist, Compound concentration 10.0 uM
Adenosine receptor A1 (Homo sapiens), sequence (P30542 whole entry): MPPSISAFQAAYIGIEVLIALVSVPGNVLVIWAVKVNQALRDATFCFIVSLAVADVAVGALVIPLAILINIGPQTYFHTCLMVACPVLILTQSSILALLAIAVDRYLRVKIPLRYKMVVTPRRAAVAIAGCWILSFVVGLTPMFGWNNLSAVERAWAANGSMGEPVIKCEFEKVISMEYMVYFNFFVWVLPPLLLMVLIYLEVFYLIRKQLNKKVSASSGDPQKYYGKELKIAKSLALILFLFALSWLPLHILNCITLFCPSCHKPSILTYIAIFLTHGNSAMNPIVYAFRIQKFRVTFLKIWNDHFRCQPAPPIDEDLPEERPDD

Prostaglandin G/H synthase 2 (Homo sapiens), sequence (P35354 whole entry): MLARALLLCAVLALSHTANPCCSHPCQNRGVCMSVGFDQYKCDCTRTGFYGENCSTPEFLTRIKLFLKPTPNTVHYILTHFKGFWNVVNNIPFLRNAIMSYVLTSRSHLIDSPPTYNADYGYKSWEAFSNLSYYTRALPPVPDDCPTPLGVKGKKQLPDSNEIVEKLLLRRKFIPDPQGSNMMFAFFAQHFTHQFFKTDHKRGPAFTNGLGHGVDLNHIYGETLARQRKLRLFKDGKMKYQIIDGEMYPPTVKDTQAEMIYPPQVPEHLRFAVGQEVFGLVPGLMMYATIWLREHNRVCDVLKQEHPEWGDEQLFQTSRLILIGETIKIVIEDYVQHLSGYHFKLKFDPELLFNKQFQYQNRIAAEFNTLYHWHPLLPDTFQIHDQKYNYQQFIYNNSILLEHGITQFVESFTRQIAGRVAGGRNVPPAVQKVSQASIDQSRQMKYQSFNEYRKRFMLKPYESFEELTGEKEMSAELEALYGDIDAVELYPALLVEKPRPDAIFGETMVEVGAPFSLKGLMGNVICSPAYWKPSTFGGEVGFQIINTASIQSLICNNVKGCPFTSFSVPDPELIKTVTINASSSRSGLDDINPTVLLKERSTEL
Prostaglandin G/H synthase 1 (Homo sapiens), sequence (P23219 whole entry): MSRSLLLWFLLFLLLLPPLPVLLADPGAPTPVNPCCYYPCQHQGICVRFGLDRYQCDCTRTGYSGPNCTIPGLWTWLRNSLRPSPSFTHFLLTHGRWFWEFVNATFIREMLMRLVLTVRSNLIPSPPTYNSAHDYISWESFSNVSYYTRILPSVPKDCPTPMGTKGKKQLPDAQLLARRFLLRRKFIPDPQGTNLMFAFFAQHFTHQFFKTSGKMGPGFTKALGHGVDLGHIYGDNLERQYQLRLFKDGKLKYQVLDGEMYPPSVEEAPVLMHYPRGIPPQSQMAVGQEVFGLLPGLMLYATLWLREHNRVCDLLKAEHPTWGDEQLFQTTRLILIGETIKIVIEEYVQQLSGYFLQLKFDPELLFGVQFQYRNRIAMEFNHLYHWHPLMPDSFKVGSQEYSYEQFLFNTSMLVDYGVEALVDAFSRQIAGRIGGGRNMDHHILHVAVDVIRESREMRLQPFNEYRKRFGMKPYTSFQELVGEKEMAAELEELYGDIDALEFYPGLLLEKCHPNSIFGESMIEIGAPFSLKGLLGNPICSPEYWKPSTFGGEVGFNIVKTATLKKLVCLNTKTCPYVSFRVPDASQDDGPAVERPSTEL
Angiotensin-converting enzyme (Homo sapiens), sequence (P12821 whole entry): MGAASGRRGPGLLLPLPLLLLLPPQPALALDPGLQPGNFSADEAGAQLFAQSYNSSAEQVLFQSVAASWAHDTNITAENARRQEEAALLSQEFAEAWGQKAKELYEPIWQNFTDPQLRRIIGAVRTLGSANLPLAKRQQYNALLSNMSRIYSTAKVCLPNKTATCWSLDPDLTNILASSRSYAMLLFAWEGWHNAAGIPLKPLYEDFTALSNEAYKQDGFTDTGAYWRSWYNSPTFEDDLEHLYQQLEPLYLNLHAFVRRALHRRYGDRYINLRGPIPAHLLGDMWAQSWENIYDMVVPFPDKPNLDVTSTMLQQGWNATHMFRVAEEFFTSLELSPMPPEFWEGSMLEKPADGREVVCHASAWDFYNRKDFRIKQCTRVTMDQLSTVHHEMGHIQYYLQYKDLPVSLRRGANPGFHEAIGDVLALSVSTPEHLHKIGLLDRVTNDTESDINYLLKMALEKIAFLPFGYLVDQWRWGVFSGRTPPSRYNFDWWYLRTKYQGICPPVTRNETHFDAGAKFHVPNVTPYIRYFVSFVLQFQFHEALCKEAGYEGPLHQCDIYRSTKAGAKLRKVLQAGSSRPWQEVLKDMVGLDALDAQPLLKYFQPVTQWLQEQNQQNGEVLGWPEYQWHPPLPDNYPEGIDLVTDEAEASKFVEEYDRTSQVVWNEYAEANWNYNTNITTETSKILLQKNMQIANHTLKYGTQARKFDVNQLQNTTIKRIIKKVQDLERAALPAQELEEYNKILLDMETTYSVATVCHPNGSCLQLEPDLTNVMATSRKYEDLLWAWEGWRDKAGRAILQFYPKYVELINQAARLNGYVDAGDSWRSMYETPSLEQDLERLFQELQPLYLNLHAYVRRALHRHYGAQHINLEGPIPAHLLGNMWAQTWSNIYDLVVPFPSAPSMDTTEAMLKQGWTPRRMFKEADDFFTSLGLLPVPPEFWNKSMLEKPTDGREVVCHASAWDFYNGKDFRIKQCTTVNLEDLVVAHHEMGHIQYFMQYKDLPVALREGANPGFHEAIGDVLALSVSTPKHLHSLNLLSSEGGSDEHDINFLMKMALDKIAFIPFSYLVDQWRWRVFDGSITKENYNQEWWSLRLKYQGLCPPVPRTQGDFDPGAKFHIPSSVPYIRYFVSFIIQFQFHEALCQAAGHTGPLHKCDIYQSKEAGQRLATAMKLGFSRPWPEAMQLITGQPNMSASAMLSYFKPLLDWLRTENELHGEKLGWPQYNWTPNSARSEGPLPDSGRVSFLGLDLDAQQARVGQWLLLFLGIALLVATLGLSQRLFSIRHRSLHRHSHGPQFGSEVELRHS
Sodium-dependent noradrenaline transporter (Homo sapiens), sequence (P23975 whole entry): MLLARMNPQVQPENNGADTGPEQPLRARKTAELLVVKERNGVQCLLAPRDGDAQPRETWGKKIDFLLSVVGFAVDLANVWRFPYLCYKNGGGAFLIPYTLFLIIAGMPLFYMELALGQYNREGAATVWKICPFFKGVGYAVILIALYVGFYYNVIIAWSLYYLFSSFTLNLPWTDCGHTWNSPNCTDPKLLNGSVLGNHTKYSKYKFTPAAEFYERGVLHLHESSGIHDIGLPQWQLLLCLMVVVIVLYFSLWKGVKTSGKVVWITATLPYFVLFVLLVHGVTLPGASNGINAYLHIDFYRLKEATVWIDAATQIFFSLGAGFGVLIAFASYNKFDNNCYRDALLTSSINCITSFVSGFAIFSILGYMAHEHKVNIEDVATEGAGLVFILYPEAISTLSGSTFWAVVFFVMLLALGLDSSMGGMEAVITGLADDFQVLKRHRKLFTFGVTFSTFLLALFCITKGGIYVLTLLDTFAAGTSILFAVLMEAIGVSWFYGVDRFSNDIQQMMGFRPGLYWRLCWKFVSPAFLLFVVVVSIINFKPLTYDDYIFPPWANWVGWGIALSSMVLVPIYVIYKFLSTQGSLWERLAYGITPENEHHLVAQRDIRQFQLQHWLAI
D(2) dopamine receptor (Homo sapiens), sequence (P14416 whole entry): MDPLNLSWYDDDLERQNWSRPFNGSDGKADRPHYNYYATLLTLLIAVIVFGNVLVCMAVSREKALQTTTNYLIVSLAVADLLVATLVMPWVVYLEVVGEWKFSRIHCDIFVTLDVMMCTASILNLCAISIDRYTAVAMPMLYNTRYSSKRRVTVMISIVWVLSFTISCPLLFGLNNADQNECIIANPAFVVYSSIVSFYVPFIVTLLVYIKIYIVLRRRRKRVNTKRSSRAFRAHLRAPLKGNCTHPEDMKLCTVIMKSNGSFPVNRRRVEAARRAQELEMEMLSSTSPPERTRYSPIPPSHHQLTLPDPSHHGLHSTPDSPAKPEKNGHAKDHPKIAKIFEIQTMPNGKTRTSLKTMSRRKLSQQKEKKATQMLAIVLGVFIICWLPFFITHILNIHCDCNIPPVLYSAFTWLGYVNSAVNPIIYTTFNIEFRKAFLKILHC
Delta-type opioid receptor, sequence (P41143 whole entry): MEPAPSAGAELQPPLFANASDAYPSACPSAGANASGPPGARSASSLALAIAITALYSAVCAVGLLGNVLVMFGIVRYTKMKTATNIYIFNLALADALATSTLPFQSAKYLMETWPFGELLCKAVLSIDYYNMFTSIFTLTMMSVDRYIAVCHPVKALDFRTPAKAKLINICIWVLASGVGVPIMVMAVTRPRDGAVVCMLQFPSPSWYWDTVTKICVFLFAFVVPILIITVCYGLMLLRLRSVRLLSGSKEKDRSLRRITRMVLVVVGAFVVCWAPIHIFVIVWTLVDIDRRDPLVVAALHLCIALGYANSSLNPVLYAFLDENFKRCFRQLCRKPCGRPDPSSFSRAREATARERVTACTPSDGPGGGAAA

| SMILES | EC50 (MOLT-4) | % Inhibition of Control Specific Binding (Mean n=2) [1] | % Inhibition of Control Specific Binding (Mean n=2) [2] | % Inhibition of Control Specific Binding (Mean n=2) [3] | % Inhibition of Control Specific Binding (Mean n=2) [4] | % Inhibition of Control Values (Mean n=2) [5] | % Inhibition of Control Specific Binding (Mean n=2) [6] | % Inhibition of Control Specific Binding (Mean n=2) [7] | % Inhibition of Control Specific Binding (Mean n=2) [8] | % Inhibition of Control Specific Binding (Mean n=2) [9] | % Inhibition of Control Specific Binding (Mean n=2) [10] | % Inhibition of Control Values (Mean n=2) [11] | % Inhibition of Control Values (Mean n=2) [12] | % Inhibition of Control Specific Binding (Mean n=2) [13] | % Inhibition of Control Specific Binding (Mean n=2) [14] | % Inhibition of Control Specific Binding (Mean n=2) [15] | % Inhibition of Control Specific Binding (Mean n=2) [16] | % Inhibition of Control Values (Mean n=2) [17] | % Inhibition of Control Specific Binding (Mean n=2) [18] | % Inhibition of Control Specific Binding (Mean n=2) [19] |
| --- | --- | --- | --- | --- | --- | --- | --- | --- | --- | --- | --- | --- | --- | --- | --- | --- | --- | --- | --- | --- |
| CN(C)CC#Cc1ccc(OCCCc2sc(N3CCc4cccc(C(=O)Nc5nc6ccccc6s5)c4C3)nc2C(=O)O)c(F)c1 [A-1155463] | 0.214 µM (active) | 17.3% | 77.9% | -2.5% | 6.7% | 62.2% | 15.5% | 44.3% | 32.2% | 27.4% | 25.6% | 22.1% | -17.3% | 20.9% | 17.4% | -2.9% | 4.7% | 39.5% | 27.1% | 60.6% |
| O=C(Nc1nc2ccccc2s1)c1cccc2c1CN(c1nc(C(=O)O)c(CCOc3ccc(-n4ncc5cncnc54)cc3)s1)CC2 [A-1107969] | > 10 µM (not active) | -1.5% | -1.8% | -17.8% | -4% | 65.5% | -4.7% | -0.6% | -1% | 15.8% | 5.3% | -17% | -7.5% | -4% | -4.4% | -19.5% | 1.7% | 68.2% | 13.5% | 7.9% |
